# According to article PMC12627933, “A First-In-Human Study of the SUMOylation Inhibitor Subasumstat in Patients with Advanced/Metastatic Solid Tumors or Relapsed/Refractory Hematologic Malignancies” (Cancer Research Communications, 2025):
# Like-named read-outs stand apart in the source and are kept apart here.
# How the values were obtained:
# Assay type in all cases: in vivo, human
# [1] = Pharmacokinetics after 1-hour intravenous infusion (non-compartmental); settings: for half-life: across all dose levels, read-out: Terminal disposition phase half-life
# Description: Subasumstat PK were evaluated after the first dose on C1D1 and cycle 1 day 8 (C1D8). The parameters included maximum observed plasma concentration (Cmax), time to first occurrence of Cmax, area under the plasma concentration–time curve from time 0 to the last measurable concentration (AUC0–t) or from time 0 extrapolated to time infinity (AUC0–∞), terminal disposition phase half-life, total clearance, and volume of distribution at steady state. PK parameters were estimated from concentration–time profiles for the PK analysis set, using non-compartmental methods, with Phoenix WinNonlin (RRID: SCR_024504).
# SUMO2/3 conjugates = experiment: SUMOylation pathway inhibition: decrease in SUMO2/3 conjugates in blood lymphocytes, skin and tumor
# Description: (§1) Blood samples for subasumstat–SUMO adduct formation and SUMO2/3 inhibition assessments were collected before dose and at 1, 4, and 8 hours after the infusion on C1D1 and C1D8. Blood samples for additional biomarker analyses were collected before dose on C1D1 and C1D8 and at 4, 8, and 24 hours after infusion on C1D1 and C1D8. Skin biopsies (used as surrogate tissue for solid tumors) were collected at screening and on C1D8 at 2 hours (±30 minutes) after end of infusion, and tumor biopsies were collected at screening and cycle 2 day 8 (C2D8; +7 days; whenever possible). In blood samples, a custom flow cytometry assay was utilized for detecting target engagement and SUMOylated protein levels in lymphocytes (including T-, B-, and NK-cell subsets). The assay included a PE-conjugated antibody specifically recognizing the SUMO–subasumstat adduct (MIL-113, anti–cysteinyl-TAK-981, Epitomics; refs. [14], [15], [22]) and an AF488-conjugated antibody recognizing SUMO2/3 conjugates (MBL International, cat. #M114-3, RRID: AB_592769). Peripheral blood cells were lysed/fixed, permeabilized (BD Biosciences), and stained with MIL-113 and M114-3 and with antibodies against CD45, CD3, CD19, CD16/CD56, and CD14. IHC assays for SUMO–subasumstat adduct and SUMO2/3 inhibition in skin biopsies and tumors were performed using MIL-113 and M114-3 antibodies. Activation of the IFNI pathway was assessed in peripheral blood by analysis of gene expression data (PanCancer IO 360 panel by NanoString for phase I and whole-transcriptome RNA sequencing data for phase II). Type I IFN gene signature was computed using geometric mean of the following genes: CCL2, CXCL10, DDX58, IRF7, ISG15, STAT1, and STAT2. These seven IFNI-regulated genes were selected prior to the trial, based on in vitro studies of the effect of subasumstat on human blood from 10 healthy donors analyzed on the NanoString PanCancer IO 360 panel. Plasma chemokines and cytokines were measured using the MesoScale Discovery platform (pro-inflammatory and chemokine panels, BioAgilytix). For assessment of NK- and T-cell activation, cells were suspended in buffer and incubated with the following monoclonal antibodies: APC-H7 mouse anti–human CD45 (BD Biosciences, cat. #560274), APC mouse anti–human CD69 (BD Biosciences, cat. #555533), BV421 mouse anti–human CD56 (BD Biosciences, cat. #562751), mouse anti–human CD16 PerCP-Cy5.5 (BD Biosciences, cat. #338440), BV510 mouse anti–human CD4 (BD Biosciences, cat. #563094), BV605 mouse anti–human CD8 (BD Biosciences, cat. #564116), and Alexa Fluor 700 anti–mouse CD3 antibody (BioLegend, cat. #100215), prior to assessment by flow cytometry using the BD Scientific FACSCanto flow cytometer (RRID: SCR_018055). Tumor PD-L1 expression level was assessed in paired tumor biopsies using the 22C3 PD-L1 IHC assay; combined positive score (CPS) was calculated for baseline and on-treatment tumor samples. The immune landscape in the tumor microenvironment (TME) was assessed using an integrated RNAscope and 27-marker MultiOmyx immunofluorescence panel.
# [2] = tested on: tumor microenvironment (TME); experiment: Tumor microenvironment in paired tumor biopsies (multiplex immunofluorescence, PD-L1 22C3 IHC CPS)
# Description: as §1
# [3] = cervical cancer and melanoma biopsies
structure (smiles),measurement,setting,value
Cc1sc(C(=O)c2cncnc2N[C@@H]2C[C@H](COS(N)(=O)=O)[C@@H](O)C2)cc1[C@@H]1NCCc2ccc(Cl)cc21 [subasumstat],Time of maximum plasma and blood concentrations,"[1]; after dose (end of infusion), intravenous, C1D1 and C1D8, phase I",approximately 1 hour
same,"Increase of Cmax, AUC0–t and AUC0–∞ with dose","[1]; dose range 3 to 120 mg, C1D1 and C1D8",approximately dose-proportional
same,half-life,"[1]; human, intravenous, plasma",3.35 to 9.31 h
same,clearance,"[1]; human, intravenous, stated as lower in blood compared with plasma, matrix of the range not stated explicitly",38.2 to 76 mL/min
same,Vd,"[1]; human, intravenous, stated as lower in blood compared with plasma, matrix of the range not stated explicitly, read-out: Volume of distribution at steady state",13.7 to 38.8 L
same,half-life,"[1]; human, whole blood, intravenous, blood",2.87 to 9.19 h
same,Accumulation in plasma after multiple administrations,"[1]; phase II, 90 mg twice weekly, C1D4, C1D8, C2D1, C2D8 vs C1D1",no apparent accumulation
same,Duration of SUMO2/3 inhibition,SUMO2/3 conjugates; peripheral blood lymphocytes,at least 8 hours
same,Time to SUMO2/3 inhibition after end of infusion,SUMO2/3 conjugates; peripheral blood lymphocytes,≤ 1 h
same,Dose from which SUMO2/3 inhibition was observed,"SUMO2/3 conjugates; peripheral blood lymphocytes, dose-dependent",≥ 40 mg
same,SUMO2/3 inhibition in tumor samples,"SUMO2/3 conjugates; post-dose tumor samples, except two MSS colorectal cancer and one NSCLC patient",observed in most post-dose samples
same,Dose from which reduced SUMO2/3 levels were observed in skin,SUMO2/3 conjugates; skin biopsies on C1D8,≥ 60 mg
same,T-cell infiltration in tumor,[2]; CPI-naïve cervical cancer and CPI-exposed melanoma and NSCLC samples,significant CD8^+ and CD4^+ T-cell infiltration
same,T-cell density in tumor,[2]; biopsies from three patients with MSS colorectal cancer,did not exhibit an increase in T-cell density
same,Activated CD11C+HLA-DR+ myeloid dendritic cells,[2]; [3],increase in density
same,HLA class I expression on tumor cells,[2]; [3],marked increase
same,T-cell activation (CD69 on CD4+ and CD8+ T cells) in tumor,[2]; [3],significant increase in T-cell activation
same,PD-L1 CPS,"[2]; paired tumor samples, C2D8",increased in most paired tumor samples
same,Regulatory T cells in tumor,[2]; same biopsies,no significant changes
